Structures are written as SMILES.

The assay addresses T1, AIPL1 (full-length mouse AIPL1) (Mus musculus, UniProt Q924K1).
T1 construct: full-length (aa 1-328), His6-tagged from pET15b, expressed in E. coli BL21(DE3), purified by Ni-NTA, Mono Q and SEC; prenyl site in the FKBP domain
T1 sequence (Q924K1 1-328): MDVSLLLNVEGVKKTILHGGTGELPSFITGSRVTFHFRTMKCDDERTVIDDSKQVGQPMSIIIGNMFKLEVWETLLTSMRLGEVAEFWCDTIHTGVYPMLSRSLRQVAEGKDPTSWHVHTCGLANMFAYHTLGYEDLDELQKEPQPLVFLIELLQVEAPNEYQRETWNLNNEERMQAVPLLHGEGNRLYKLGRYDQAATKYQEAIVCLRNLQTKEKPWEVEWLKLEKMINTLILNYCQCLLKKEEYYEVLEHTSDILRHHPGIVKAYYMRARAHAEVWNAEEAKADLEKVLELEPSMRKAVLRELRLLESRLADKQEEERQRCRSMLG
Nature of the assay: fluorescence titration, ex […] nm, em […] nm, fit with ligand depletion. The assay is classed as binding.

The term Kd denotes the equilibrium constant for the complex coming apart. Compound `CC(C)=CCC/C(C)=C/CC/C(C)=C/CSC[C@H](NC(=O)CCCCCNC(=O)Cc1c(C)c2ccc(N)cc2oc1=O)C(=O)O` [farnesyl-Cys-AMCA] displayed a Kd of 700 ± 100 nM.

For the origin of these results see publication PMC8857470, “Molecular insights into the maturation of phosphodiesterase 6 by the specialized chaperone complex of HSP90 with AIPL1” (The Journal of Biological Chemistry, 2022).
